Measurements reported in patent publication US20020151707A1, “Immune mediators and related methods” (Corixa Corp., priority 1995, published 2002).

Columns and labels:
[1] = test system: NOD MHC Class II I-A^g7; details: known from the literature (Reich et al.); cited from earlier work
[2] = test system: T cell lines derived from one HLA-DRB1*0404 patient (ThHo); experiment: Reactivity of GAD-reactive human T cell lines to synthetic GAD peptides (3H-thymidine proliferation); type: cell-based; details: for number of T cell lines stimulated: of 4 T cell lines
Protocol: T-cell clones were rested (not given IL-2 for 2 days, at least 7 days post-stimulation with antigen), washed, counted and resuspended in 15% PHS medium. They were plated at 25,000 cells/well in […] 15% PHS medium. Autologous or HLA-class II-matched PBMNCs are loaded with GAD by incubating with GAD (about […]) for at least 5 hours. The cells are washed and irradiated with 3000 rads. These cells are washed and resuspended in 15% PHS medium, and added to the T-cells at a concentration of 1×10^6 cells/well in […] 15% PHS medium. The cells were incubated for 48 hours, then pulsed with […] 3H-thymidine and harvested. A positive response is considered to be a stimulation index >3 (stimulation index SI=average cpm of sample stimulated with antigen/average cpm of sample of cells stimulated with no antigen or control antigen). Some controls include T-cells alone, stimulators alone, a purified negative antigen, GAD purified from baculovirus, PHA, and IL-2.
Other methods, well known in the art, for testing clones and lines include dose response to antigen; response to these antigens or negative antigen controls; determination of HLA-class II restriction by adding blocking anti-HLA class II antibody to plates; and use of peptides to load stimulators to determine peptide specificity, which can be done as described above except the peptides are tested by dose titration and left in the assay. A dose response in combination with peptide specificity tests can also be done.
Four individual T cell lines derived from one HLA-DRB1*0404 patient (ThHo) were used to map the 74 synthetic GAD peptides, overlapping sets of 20 mers, that span the entire length of GAD 65 (SEQ. ID. NO. 59). Antigen presenting cells, BLS-DRB1*0404 and/or BLS-DRB1*0401 (Kovats et al., J. Exp. Med. 179:2017-22, 1994), were loaded with peptide by incubating with peptide (about […]) for at least 5 hours. Reactivity of T-cells was determined as above. One peptide, hGAD 33 ([…] SEQ. ID. NO. 40) stimulated 3 or the 4 lines with BLS-B1*0404. […]

[3] = test system: C-terminal amidated GAD65+I-A^g7 restricted T cell hybridomas (MBD.1, MBD2.3, MBD2.7, MBD2.8, MBD2.11, MBD2.14); experiment: Activation of GAD65 restricted T-cell hybridomas, read as CTLL proliferation in response to IL-2; type: cell-based, NOD mouse; details: hybridoma MBD.1; peptide + I-A^g7 of NOD APCs; CTLL cells
Protocol: To determine specificity of the T-cell hybridomas, antigen-presenting cells (APCs) were prepared by grinding NOD mice spleens and lysing as in Example 11. The splenocytes were brought to 3 ml in Bruff's medium containing 10% FBS. Mitomycin C (Sigma) was added at 0.3 ml per 3 ml of cell suspension to prevent DNA synthesis. The APCs were incubated for 30 minutes in a 37° C. water bath, and then washed 3 times in Bruff's medium containing 10% FBS, each time centrifuging for 5 minutes at 1200 RPM. After the final wash, the APCs were brought to a concentration of 2×10^6 cells/ml in Bruff's medium containing 10% FBS. C-terminal amidated GAD65 peptide was titered from 333 μg/ml to 0.15 μg/ml in round bottom 96 well plates. Fifty microliters (1×10^5) APCs were added to the peptides. Hybridomas were counted and brought to a concentration of 1×10^6 cells/ml in Bruff's medium containing 10% FBS, and 100 μl (1×10^5) cells was added to each well. Hybridomas were also tested against the following: I-A^g7 MHC +a peptide other than C-terminal amidated GAD65; an MHC other than I-A^g7+C-terminal amidated GAD65; the I-A^g7 MHC alone; and C-terminal amidated GAD65 alone. The plate was incubated at 37° C., 5% CO2, overnight. […] Incorporation of ^3H-thymidine into the DNA was measured on a Wallac 1205 Betaplate Beta Counter (Turku, Finland). […]

[4] = test system: NOD recipient mice; experiment: Adoptive transfer of IDDM with splenocytes from diabetic NOD mice; type: in vivo, NOD mouse
Excerpt: IDDM can also be adoptively transferred by transplanting splenic cells from a diabetic-donor to a non-diabetic recipient (Baron et al., J. Clin. Invest. 93:1700-08, 1994). This method involves treating in vivo activated mature T cells. Briefly, NOD/CaJ mice are irradiated (730 rad) and randomly divided into treatment groups. Splenocytes, preferably about 1.5×10^7, from newly diabetic mice are isolated and injected intravenously into non-diabetic NOD 7-8 week old recipient mice, followed six hours later with intravenous injections of saline, peptide or MHC:peptide complex at 10, 5, or 1 μg/mouse. The injections are repeated on days 4, 8 and 12 following the original injection. Mice are tested for the onset of diabetes by urine analysis, and at the time of sacrifice, blood glucose. Treatment of these mice with an MHC:peptide complex is expected to lengthen the time period before the onset of diabetes and/or to prevent or ameliorate the disease. […]
IDDM can be adoptively transferred by injecting splenic cells from a diabetic donor into a non-diabetic recipient. […] Those animals showing positive urine values of at least 250 mg/dl glucose were further analyzed for blood glucose levels using tail clippings, and if the blood glucose was also at or above 250 mg/dl, the mice were classified as overtly diabetic. […]

For “MSA: Mouse serum albumin (MSA), a known allele-specific peptide (SEQ. ID. NO. 61), positive control”, the “affinity for I-A^g7 (control peptides)” value [1] is listed as “high affinity”.

With PGGAISNMYA [ID; NO; 41] the “stimulation of T-cell line, HLA restriction” value ([2]; APC BLS-B1*0404 versus BLS-DRB1*0401) was “stimulated the same T-cell line only when presented by BLS-B1*0404”.

With PGGAISNMYAM [ID; NO; 39] the “number of T cell lines stimulated” value ([2]; presented by either BLS-B1*0404 or BLS-DRB1*0401) was “one”.

With “PGGAISNMYAMMIARFKMFP (PGGAISNMYAMMIARFKNFP) [hGAD 33, ID; NO; 40]” the “number of T cell lines stimulated” value ([2]; peptide presented by BLS-B1*0404) was 3.

In the case of “SRLSKVAPVIKARMMEYGTT [same GAD65 peptide (aa 524-543) with a carboxylic group at the C-terminus]”, the “proliferative response (lesser response)” value [3] was greater than 2000 CMP.

For “SRLSKVAPVIKARMMEYGTT-NH2 [C-terminal amidated GAD65 peptide]”, the “proliferative response, incorporated 3H-thymidine” value [3] was greater than 5000 cpm, the “mice that had developed disease by day 30” value ([4]; 10 μg/mouse peptide alone) was “over 75%” and the “overall effect on onset of diabetes in the adoptive transfer model” value ([4]; mouse, in vivo) was “accelerated the onset of diabetes”.
